# Patent US9359339B2, “Glucagon receptor antagonist compounds, compositions containing such compounds and methods of use” (Merck Sharp & Dohme Corp., priority 2009, dated 2016)
# Target: human glucagon receptor (Homo sapiens (Human), UniProt P47871)
# Experiment: Glucagon Receptor Binding Assay (125I-glucagon SPA, CHO cell membranes)
# Settings: inhibition of 125I-Glucagon binding to membranes of CHO cells expressing cloned human glucagon receptor; more active isomer
# Procedure: Glucagon Receptor Binding Assay
# A stable CHO (Chinese hamster ovary) cell line expressing cloned human glucagon receptor was maintained as described (Chicchi, et. al. J Biol Chem 272, 7765-9 (1997); Cascieri, et. al. J Biol Chem 274, 8694-7 (1999)). To determine antagonistic binding affinity of compounds, 0.001-0.003 mg of cell membranes from these cells were pre-incubated with 0.100 mg WGA-coated PVT SPA beads (Amersham) for 20 minutes at room temperature in 25 μL of a buffer containing 50 mM Tris-HCl (pH 7.5), 5 mM MgCl2, 2 mM EDTA, 0.1% BSA and 3% glycerol in Costar 384 well plates with clear bottoms (#3706). Next, 25 μL of ^125I-Glucagon (New England Nuclear, MA) (1×10^−14 mol per well) and either 1 μL solutions of test compounds or 0.001 mM unlabeled glucagon or DMSO were added and mixed. After 4-12 hours incubation at room temperature, the radioactivity bound to the cell membranes was determined in a radioactive emission detection counter (Wallac-Microbeta). Data were analyzed using the Data Analyzer software program of Merck & Co., Inc. The IC50 values were calculated using non-linear regression analysis assuming single-site competition.
# Chain of human glucagon receptor (P47871 26-477): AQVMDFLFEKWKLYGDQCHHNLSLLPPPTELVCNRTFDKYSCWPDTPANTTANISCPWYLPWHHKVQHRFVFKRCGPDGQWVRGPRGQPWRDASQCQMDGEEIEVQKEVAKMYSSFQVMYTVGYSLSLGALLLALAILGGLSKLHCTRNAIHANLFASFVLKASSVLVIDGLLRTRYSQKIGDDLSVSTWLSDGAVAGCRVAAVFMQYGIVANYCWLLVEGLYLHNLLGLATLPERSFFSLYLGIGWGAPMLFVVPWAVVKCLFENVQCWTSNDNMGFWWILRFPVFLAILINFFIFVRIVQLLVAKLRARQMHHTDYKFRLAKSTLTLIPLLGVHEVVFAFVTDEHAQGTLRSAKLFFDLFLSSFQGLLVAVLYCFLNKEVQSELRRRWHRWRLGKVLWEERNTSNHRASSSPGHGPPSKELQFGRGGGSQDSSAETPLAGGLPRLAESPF
row,IC50 [nM],Compound
1,0.4,"CCCC[C@H](c1ccc(C(=O)NCCC(=O)O)cc1)C(c1ccc(Cl)cc1)c1csc2c(C#N)cc(Cl)cc12 (stereo partly drawn) [Example 29, N-(4-{(1S)-1-[(5-CHLORO-7-CYANO-1-BENZOTHIEN-3-YL)(4-CHLOROPHENYL)METHYL]PENTYL}BENZOYL)-β-ALANINE]"
2,0.2,"N#Cc1cc(Cl)cc2c(C(c3ccc(Cl)cc3)[C@H](CCC(F)(F)F)c3ccc(C(=O)NCCC(=O)O)cc3)csc12 (stereo partly drawn) [Example 27, N-(4-{(1S)-1-[(5-CHLORO-7-CYANO-1-BENZOTHIEN-3-YL)(4-CHLOROPHENYL)METHYL]-4,4,4-TRIFLUOROBUTYL}BENZOYL)-β-ALANINE]"
3,11.8,"CCC[C@H](c1ccc(C(=O)NCC(F)(F)C(=O)O)cc1)C(c1ccc(Cl)cc1)c1csc2c(Br)cc(C)cc12 (stereo partly drawn) [Example 40, 3-[(4-{(1S)-1-[(5-METHYL-7-BROMO-1-BENZOTHIOPHEN-3-YL)(4-CHLOROPHENYL)METHYL]BUTYL}BENZOYL)AMINO]-2,2-DIFLUOROPROPANOIC ACID]"
4,0.1,"CCC[C@H](c1ccc(C(=O)NCCC(=O)O)cc1)C(c1ccc(OC(F)(F)F)cc1)c1csc2c(C#N)cc(Cl)cc12 (stereo partly drawn) [Example 25, N-(4-{(1S)-1-[(5-CHLORO-7-CYANO-1-BENZOTHIEN-3-YL)(4-TRIFLUOROMETHOXYPHENYL)METHYL]BUTYL}BENZOYL)-β-ALANINE]"
5,1.8,"CCC[C@H](c1ccc(C(=O)NCCC(=O)O)cc1)C(c1ccc(Cl)cc1)c1sc2ccccc2c1C (stereo partly drawn) [Example 45, N-[4-((1S)-1-{(4-CHLOROPHENYL)[3-METHYL-1-BENZOTHIEN-2-YL]METHYL}BUTYL)BENZOYL]-β-ALANINE]"
6,3.4,"CCC[C@H](c1ccc(C(=O)NCCS(=O)(=O)O)cc1)C(c1ccc(Cl)cc1)c1csc2c(Br)cc(C)cc12 (stereo partly drawn) [Example 43, 2-[(4-{(1S)-1-[(5-METHYL-7-BROMO-1-BENZOTHIOPHEN-3-YL)(4-CHLOROPHENYL)METHYL]BUTYL}BENZOYL)AMINO]ETHANE SULFONIC ACID]"
7,1,"CCCC[C@H](c1ccc(C(=O)NCCC(=O)O)cc1)C(c1ccc(Cl)cc1)c1csc2c(C#N)cc(Cl)cc12 (stereo partly drawn) [Example 32, N-(4-{(1S)-1-[(5-CHLORO-7-CYANO-1-BENZOTHIEN-3-YL)(4-CHLOROPHENYL)METHYL]-4-METHYLBUTYL}BENZOYL)-β-ALANINE]"

# The next lines start with the compound.
row,Compound,IC50 [nM]
1,"CCC[C@H](c1ccc(C(=O)NCCC(=O)O)cc1)C(c1ccc(Cl)c(Cl)c1)c1csc2c(C#N)cc(Cl)cc12 (stereo partly drawn) [Example 21, N-(4-{(1S)-1-[(5-CHLORO-7-CYANO-1-BENZOTHIEN-3-YL)(3,4-DICHLOROPHENYL)METHYL]BUTYL}BENZOYL)-β-ALANINE]",0.7
2,"CCC[C@H](c1ccc(C(=O)NCCC(=O)O)cc1)C(c1ccc(Cl)cc1)c1csc2c(C#N)cc(C)cc12 (stereo partly drawn) [Example 14, N-(4-{(1S)-1-[(5-METHYL-7-CYANO-1-BENZOTHIEN-3-YL)(4-CHLOROPHENYL)METHYL]BUTYL}BENZOYL)-β-ALANINE]",1.3
3,"CCC[C@H](c1ccc(C(=O)NCCC(=O)O)cc1)C(c1ccc(Cl)cc1)c1c(C)sc2ccccc12 (stereo partly drawn) [Example 8, N-(4-{(1S)-1-[(2-METHYL-1-BENZOTHIEN-3-YL)(4-CHLOROPHENYL)METHYL]BUTYL}BENZOYL)-β-ALANINE]",2.2
4,"CCC[C@H](c1ccc(C(=O)NCc2nn[nH]n2)cc1)C(c1ccc(Cl)cc1)c1csc2c(Br)cc(C)cc12 (stereo partly drawn) [Example 4, 4-{(1S)-1-[(7-BROMO-5-METHYL-1-BENZOTHIEN-3-YL)(4-CHLOROPHENYL)METHYL]BUTYL}-N-(2H-TETRAZOL-5-YLMETHYL)BENZAMIDE]",2.5
5,"CCC[C@H](c1ccc(C(=O)NCCC(=O)O)cc1)C(c1ccc(Cl)cc1)c1csc2c(C#N)cc(Cl)cc12 (stereo partly drawn) [Example 1, N-(4-{(1S)-1-[(5-CHLORO-7-CYANO-1-BENZOTHIEN-3-YL)(4-CHLOROPHENYL)METHYL]BUTYL}BENZOYL)-β-ALANINE]",6.2
6,"CCC[C@H](c1ccc(C(=O)Nc2nnn[nH]2)cc1)C(c1ccc(Cl)cc1)c1csc2c(Br)cc(C)cc12 (stereo partly drawn) [Example 3, 4-{(1S)-1-[(7-BROMO-5-METHYL-1-BENZOTHIEN-3-YL)(4-CHLOROPHENYL)METHYL]BUTYL}-N-1H-TETRAZOL-5-YLBENZAMIDE]",2.3
7,"CCC[C@H](c1ccc(C(=O)NCCC(=O)O)cc1)C(c1ccc(Cl)cc1)c1c(C)sc2c(C#N)cc(Cl)cc12 (stereo partly drawn) [Example 19, N-(4-{(1S)-1-[(2-METHYL-5-CHLORO-7-CYANO-1-BENZOTHIEN-3-YL)(4-CHLOROPHENYL)METHYL]BUTYL}BENZOYL)-β-ALANINE]",7.8
8,"CCCC[C@H](c1ccc(C(=O)NCCC(=O)O)cc1)C(c1ccc(Cl)cc1)c1csc2c(-c3ccnn3C)cc(F)cc12 (stereo partly drawn) [Example 2, N-[4-((1S)-1-{(4-CHLOROPHENYL)[5-FLUORO-7-(1-METHYL-1H-PYRAZOL-5-YL)-1-BENZOTHIEN-3-YL]METHYL}PENTYL)BENZOYL]-β-ALANINE]",4.7
9,"CCC[C@H](c1ccc(C(=O)NCCC(=O)O)cc1)C(c1ccc(OC(F)(F)F)cc1)c1csc2c(C#N)cc(C)cc12 (stereo partly drawn) [Example 23, N-(4-{(1S)-1-[(5-METHYL-7-CYANO-1-BENZOTHIEN-3-YL)(4-TRIFLUOROMETHOXYPHENYL)METHYL]BUTYL}BENZOYL)-β-ALANINE]",0.2
10,"CCC[C@H](c1ccc(C(=O)NCCC(=O)O)cc1)C(c1ccc(Cl)cc1)c1csc2c(C)cc(Cl)cc12 (stereo partly drawn) [Example 6, N-(4-{(1S)-1-[(5-CHLORO-7-METHYL-1-BENZOTHIEN-3-YL)(4-CHLOROPHENYL)METHYL]BUTYL}BENZOYL)-β-ALANINE]",28
11,"CCC[C@H](c1ccc(C(=O)NCCC(=O)O)cc1)C(c1ccc(Cl)cc1)c1csc2c(C#N)cc(C(F)(F)F)cc12 (stereo partly drawn) [Example 15, N-(4-{(1S)-1-[(5-TRIFLUOROMETHYL-7-CYANO-1-BENZOTHIEN-3-YL)(4-CHLOROPHENYL)METHYL]BUTYL}BENZOYL)-β-ALANINE]",1.7
12,"CCC[C@H](c1ccc(C(=O)NCCC(=O)O)cc1)C(c1ccc(Cl)cc1)c1csc2c(C#N)cc(F)cc12 (stereo partly drawn) [Example 13, N-(4-{(1S)-1-[(5-FLUORO-7-CYANO-1-BENZOTHIEN-3-YL)(4-CHLOROPHENYL)METHYL]BUTYL}BENZOYL)-β-ALANINE]",1.1
